Legend:
C57BL6/J mice [1] = assay: Acute cisplatin-induced kidney injury model; assay type: in vivo
Protocol: Animal procedures were performed in 8 to 10 weeks old male C57B16/J mice (Janvier Labs). Mice were fed a laboratory standard diet with water and food ad libitum and were kept under constant environmental conditions with a 12-hour light-dark cycle. […] Three days after this single injection, animals were sacrificed by cervical dislocation (FIG. 1A).
Reverse transcription was performed on 1 μg of RNA using high-capacity cDNA reverse transcription kit (Thermo Fisher), according the manufacturer's recommendation. Real time PCR was performed on a StepOne device using Taqman Gene Expression Master Mix (Thermo Fisher), following manufacturer's recommendations. Expression levels of the following genes were evaluated using comparative CT method (2-deltaCT): Neutrophil Gelatinase Associated Lipocalin (NGAL, Assay IDs Hs00194353_ml and Mm01324470_m1), Kidney Injury Molecule-1 (KIM-1, Assay ID Hs00273334_ml and Mm00506686_m1), Tumor Necrosis Factor alpha (TNFα, Assay ID Hs00174128_m1 and Mm00443258_m1), Interleukin-6 (I16, Assay ID Hs00174131_m1 and Mm00446190_m1), Adora2A Receptor (A2AR, Assay ID Hs00169123_m1 and Mm00802075_m1), Bcl2 associated X (Bax, Assay ID Hs00180269_m1 and Mm00432051_m1), B cell lymphoma 2 (Bcl2, Assay ID Hs00608023_m1 and Mm00477631_m1), Copper transporter receptor 1 (CTR1, Assay ID Hs00741015_m1 and Mm00612987_m1), Organic cation transporter 2 (OCT2, Assay ID Hs00533907 m1 and Mm00457295_m1), ATPase 7A (ATP7A, Assay ID Hs00163707_m1 and Mm00437663_m1), ATPase 7B (ATP7B, Assay ID Hs00163739_m1 and Mm00599675_m1), Multidrug and toxin extrusion ½ (MATE1/2, Assay ID Hs00979028 m1/Hs00945652_m1 and Assay ID Mm00840361_m1/Mm02601002_m1), ATP Binding Cassette Subfamily C Member 2 (Abcc2, Assay ID Hs00166123_m1 and Mm00496899_m1) instructions. Transcript levels of PPIA (human Hs99999904_mland mouse sample Mm02342430_m1) were used as endogenous control.

C57BL6/J mice [2] = assay: Sub-chronic cisplatin-induced kidney injury model; assay type: in vivo
Protocol: FIG. 1. Schematic representation of the different animal procedures. (A) Acute cisplatin-induced kidney injury. […] (B) Sub-chronic cisplatin-induced kidney injury. […] (C) KW-6002 administration schedule in the acute model. […] (D) KW-6002 administration schedule in the sub-chronic model.
Animal experiments were adapted from 63-64. Animal procedures were performed in 8 to 10 weeks old male C57B16/J mice (Janvier Labs). Mice were fed a laboratory standard diet with water and food ad libitum and were kept under constant environmental conditions with a 12-hour light-dark cycle. Istradefylline (KW-6002; Tocris) was dissolved in a carrier solution consisting in 15% DMSO, 15% cremophor (Sigma), 70% saline solution (vehicle). Cisplatin (Accord Healthcare) was dissolved in saline solution. […] Three days after this single injection, animals were sacrificed by cervical dislocation (FIG. 1A).
Prior sacrifice by cervical dislocation, retro-orbital blood samples were collected in heparinized tubes and centrifuged for 10 min at 2000 rpm at room temperature. Renal function was assessed by Blood urea nitrogen (BUN) measurement using a AU480 Chemistry Analyzer (Beckman Coulter). At the time of sacrifice, kidneys or LLC1 tumors were harvested and stored in either “RNA later” solution (Thermo Fisher), 4% neutral buffered formalin or snap-frozen in liquid nitrogen.
Formalin-fixed and paraffin-embedded sections (3 μm thick) were stained with Hematoxylin and Eosin (Sigma Aldrich) or Periodic Acid-Schiff (Sigma-Aldrich). Slices were scored by a nephropathologist in a blinded manner. A kidney injury score grading scale from 0 to 5 was used to assess the severity of the injury as follow: 0=no lesions, 1=minimal injury characterized by occurrence of necrosis and debris; 2=mild injury with single cell necrosis, pyknotic cells, and apoptosis; 3=moderate injury characterized by tubular distension, vacuolation, and some cellular debris, 4=severe injury with occasional hyaline casts observed, patchy epithelial necrosis in all segments, loss of epithelial lining; and 5=very severe injury characterized by extensive tubular epithelial necrosis in all segments, loss of epithelial layer from many tubules widespread intraluminal cellular debris, and frequent hyaline casts particularly prominent in the medullary region (67).
Total RNA from kidney samples was extracted with phenol/chloroform and subsequently precipitated in isopropanol as described previously (71). Total RNA from cultured renal cells was extracted using RNeasy Mini kit (Qiagen) following manufacturer's recommendations.
Reverse transcription was performed on 1 μg of RNA using high-capacity cDNA reverse transcription kit (Thermo Fisher), according the manufacturer's recommendation. Real time PCR was performed on a StepOne device using Taqman Gene Expression Master Mix (Thermo Fisher), following manufacturer's recommendations. […]

[3] = test system: mEERL tumors in C57B16/J mice; assay: mEERL in vivo tumor model (HPV+ squamous carcinoma)
Protocol: FIG. 8. […] The arrow represents cisplatin and/or PBS injection. […] (E) Absolute tumor sizes in animals in the different groups.
We used a validated murine model of HPV+ oropharyngeal squamous cell carcinoma as previously described (noncommercial) (77). This model consists of oropharyngeal epithelial cells from C57Bl/6 male mice that stably express the HPV16 viral oncogenes E6 and E7, H-Ras, and luciferase (mEERL cells). mEERL cells were grown in a T75 flask until confluent, after which cells were trypsinized and harvested, washed 3 times with sterile PBS, and resuspended in 1 mL sterile PBS to the appropriate concentration. Mice were injected s.c. into the right flank with 20 μL solution containing either 1,000,000 mEERL cells or PBS (vehicle). The day of mEERL cell injection is indicated as day −14. Tumor volume was monitored using Vernier digital calipers.

LLC1 cells = assay: Caspase 3/7 activity in LLC1 cells; assay type: cell-based, mouse
Protocol: FIG. 7. […] Caspase 3/-7 activity (n=3 independent experiments) (A) and the number of γH2AX nuclear foci (n=36-63 nuclei/group) (B) were determined. […] Results are expressed as the mean±SEM (n=3 independent experiments). (E) Tail moment was assessed by comet assay. A total of 50 cells per condition were analyzed. *** P<0.001; 1-way ANOVA followed by Tukey's post hoc test. […] (I) KW6002 increased yH2AX expression in tumors from mice of the LLC1 syngeneic model. Quantification of nuclear yH2AX expression.
(§1) Cells were cultured in DMEM/F12 medium (Dulbecco's modified Eagle's medium and Ham's F12 medium, Thermo Fisher) supplemented with 1% penicillin/streptomycin, 5 pmol/L triiodo-L-thyronine, 10 ng/ml recombinant human epidermal growth factor, 3.5 μg/mL ascorbic acid, 5.0 μg/mL human transferrin, 5.0 μg/mL insulin, 25 ng/mL prostaglandin E1, 25 ng/ml hydrocortisone, 8.65 ng/mL sodium selenite, 0.1 mg/mL G418 and 1.2 g/L sodium bicarbonate (Sigma). Lewis lung carcinoma mouse LLC1 cells were cultured in DMEM glutamax (Thermo Fisher) containing 10% fetal calf serum and 1% penicillin/streptomycin. Cells were cultured at 37° C. in a humidified atmosphere of 5% CO2.
(§2) Apoptosis was assessed in RPTEC/hTERT and LLC1 cell lysates using the caspase-Glo 3/7 assay (Promega) according to manufacturer's recommendations.

RPTEC/hTERT cells = assay: Caspase 3/7 activity in RPTEC cells; assay type: cell-based, human; conditions: cisplatin 50 μM, 48 hours
Protocol: as §1, §2

Question: What does the source list for CCn1c(=O)c2c(nc(/C=C/c3ccc(OC)c(OC)c3)n2C)n(CC)c1=O [KW-6002, 8-[(E)-2-(3,4-dimethoxyphenyl)vinyl]-1,3-diethyl-7-methyl-3,7-dihydro-1H-purine-2,6-dione]?
Answer: histological lesions (histological score of renal injury) (C57BL6/J mice [1]; A model, FIG. 2B): less severe histological lesions; mRNA levels of I16, change vs. cisplatin (C57BL6/J mice [1]; A model, kidney): −73.8±5.3%; mRNA levels of Tnfα, change (C57BL6/J mice [1]; A model, kidney): −36.0±4.3%; reduction of KIM-1 expression vs. cisplatin (C57BL6/J mice [1]; A model, kidney mRNA): −95.2±0.7%; reduction of NGAL expression vs. cisplatin (C57BL6/J mice [1]; A model, kidney mRNA): −55.5±5.9%; reduction of BUN vs. cisplatin (C57BL6/J mice [1]; A model: cisplatin 10 mg/kg single i.p., KW-6002 3 mg/kg i.p. daily day-1 to day 2): −42.9±7.4%; histological lesions (histological score of renal injury) (C57BL6/J mice [2]; SC model, FIG. 2H): less severe histological lesions; mRNA levels of Tnfα (C57BL6/J mice [2]; SC model, FIG. 2K, figure not given): lower mRNA levels of Tnfα; mRNA levels of I16, change vs. cisplatin (C57BL6/J mice [2]; SC model, kidney): −77.5±5.6%; reduction of KIM-1 expression vs. cisplatin (C57BL6/J mice [2]; SC model, kidney mRNA): −79.5±3.8%; reduction of NGAL expression vs. cisplatin (C57BL6/J mice [2]; SC model, kidney mRNA): −82.9±1.4%; reduction of BUN vs. cisplatin (C57BL6/J mice [2]; SC model: cisplatin 3 mg/kg i.p. six days, KW-6002 3 mg/kg i.p. daily day-5 to day 7): −70.2±5.1%; cisplatin-induced increase in expression of Nrf2 (C57BL6/J mice [2]; in vivo, subchronic model, FIG. 6D): normalized; cisplatin-induced increase in expression of HO1 (C57BL6/J mice [2]; in vivo, subchronic model, FIG. 6E): normalized; effect on platinum accumulation in kidneys (C57BL6/J mice [2]; independent experiment, animals of FIGS. 2G-2L): replicated; cisplatin-induced pain hypersensitivity (von Frey) ([3]; FIG. 8D): alleviated cisplatin-induced pain hypersensitivity; tumor control by cisplatin (tumor size) ([3]; FIG. 8E): significantly potentiated tumor control by cisplatin; indicators of renal toxicity (KIM-1) induced by cisplatin ([3]; tumor-bearing mice, FIG. 8A): limited; expression of Tnf induced by cisplatin ([3]; tumor-bearing mice, FIG. 8B): limited; expression of I16 induced by cisplatin ([3]; tumor-bearing mice, FIG. 8C): limited; apoptosis: caspase 3/-7 activity (LLC1 cells; 2 μM cisplatin, 10 Nm KW6002, 24 hours, FIG. 7A): even potentiated the efficacy of cisplatin; LLC1 sensitivity to cisplatin, including apoptosis and/or DNA damage (LLC1 cells; in vitro, data not shown): likely increases LLC1 sensitivity to cisplatin; cisplatin-induced apoptosis (RPTEC/hTERT cells): inhibited cisplatin-induced apoptosis; cisplatin-induced apoptosis (RPTEC/hTERT cells; listed as KW6002): inhibiting cisplatin-induced apoptosis

— patent US20250161312A1, “A METHOD FOR THE TREATMENT OF CHEMOTHERAPEUTIC DRUG-INDUCED NEPHROTOXICITY” (INSTITUT NATIONAL DE LA SANTÉ ET DE LA RECHERCHE MÉDICALE, priority 2022, published 2025)
